Results from patent publication US20140128402A1, “PHARMACEUTICAL COMBINATION” (IPCA Laboratories Limited, priority 2011, published 2014).

How the values were obtained:
Format in all cases: in vivo, Wistar rats
[1] = test system: STZ-induced diabetic rats; experiment: Study No 1: biochemical parameters in STZ-induced diabetic rats; settings: after 21 days
Procedure: (§1) In this experiment 48 Wistar rats weighing 130-150 g of either sex were divided randomly into 8 groups consisting of 6 rats each. The study drugs suspended in vehicle [0.1% w/v suspension of Tween 80 and carboxymethylcellulose (CMC) in water] were administered for orally for 21 days. Group 1 (normal vehicle control) consisted of normal rats that neither received streptozotocin nor any test drug; Group 2 served as streptozotocin induced diabetic control (Diabetes was induced in rats by single administration of streptozotocin (60 mg/kg/i.p) dissolved in 0.1 M-citrate buffer, pH 4.5). Forty-eight hours later, blood samples were collected and glucose levels were determined to confirm the development of diabetes. […] Group 3 was diabetic rats treated with dose equivalent to human therapeutic dose of sitagliptin (STG) (11 mg/kg); Group 4 was diabetic rats treated with dose equivalent to human therapeutic dose of Hydroxychloroquine (HCQ) (46 mg/kg), Group 5 was diabetic rats treated with combination of HCQ 46 mg/kg and STG11 mg/kg; […] For other biochemical parameters i.e. […] Other parameters like body weight, food intake and water intake were evaluated weekly till day 21st.

[2] = test system: STZ-induced diabetic rats; experiment: Study No 1: body weight, food intake and water intake in STZ-induced diabetic rats; settings: for AVERAGE WATER INTAKE: oral
Procedure: as §1

[3] = test system: STZ induced diabetic rats; experiment: Study No 2: blood glucose in STZ induced diabetic rats (HCQ with vildagliptin and saxagliptin); settings: for Plasma glucose concentration: oral
Procedure: In this experiment 96 Wistar rats weighing 150-200 g of either sex were divided randomly into 16 groups consisting of 6 rats each. The study drugs were dissolved in water/suspended in vehicle [0.1% w/v suspension of Tween 80 and carboxymethylcellulose (CMC) in water] and administered orally for 28 days. Group 1 (normal vehicle control) consisted of normal rats that neither received Streptozotocin (STZ) nor any test drug; Group 2 served as Streptozotocin induced diabetic control [Diabetes was induced in rats by single administration of Streptozotocin (55 mg/kg/i.p.) dissolved in 0.1 M-citrate buffer, pH 4.5]. Forty-eight hours later, blood samples were collected and glucose levels were determined to confirm the development of diabetes. Only animals showing hyperglycaemia (blood glucose levels>250 mg/dl) were considered as diabetic and received vehicle orally; Group 3 was diabetic rats treated with hydroxychloroquine (HCQ) (22.5 mg/kg); Group 4 was diabetic rats treated with HCQ (45 mg/kg), Group 5 was diabetic rats treated with vildagliptin (VG) 6 mg/kg; Group 6 was diabetic rats treated with VG 12 mg/kg; Group 7 was diabetic rats treated with HCQ 22.5 mg/kg+VG 12 mg/kg and Group 8 was diabetic rats treated with combination of HCQ 45 mg/kg and VG 6 mg/kg; Group 9 was diabetic rats treated with saxagliptin (SG) 0.3 mg/kg; Group 10 was diabetic rats treated with Saxagliptin (SG) 0.6 mg/kg; Group 11 was diabetic rats treated with combination of HCQ 45 mg/kg+SG 0.3 mg/kg; Group 12 was diabetic rats treated with combination of HCQ 22.5 mg/kg+SG 0.6 mg/kg; Group 13 was diabetic rats treated with combination of HCQ 22.5 mg/kg and VG 6 mg/kg; Group 14 was diabetic rats treated with combination of HCQ 45 mg/kg and VG 12 mg/kg; Group 15 was diabetic rats treated with combination of HCQ 22.5 mg/kg+SG 0.3 mg/kg; Group 16 was diabetic rats treated with combination of HCQ 45 mg/kg+SG 0.6 mg/kg.
Blood glucose level was measured in normal and experimental rats at 0, 7th, 14th, 21st and 28th day of administration.

[4] = test system: STZ-induced diabetic rats; experiment: Study No 2: biochemical parameters in STZ-induced diabetic rats
[5] = test system: STZ-induced diabetic rats; experiment: Study No 2: body weight, water intake and food intake in STZ-induced diabetic rats; settings: for AVERAGE FOOD INTAKE / AVERAGE WATER INTAKE / Body Weight: oral
[6] = subtherapeutic dose: STG 5.5, HCQ 23, STG+HCQ 5.5+23 mg/kg/day oral
[7] = therapeutic dose: STG 11, HCQ 46, STG+HCQ 11+46 mg/kg/day oral
[8] = after 28 days, HCQ 22.5, VG 6, SG 0.3 mg/kg alone, HCQ+VG 22.5+6, HCQ+SG 22.5+0.3 mg/kg/day, oral
[9] = after 28 days, HCQ 45, VG 12, SG 0.6 mg/kg alone, HCQ+VG 45+12, HCQ+SG 45+0.6 mg/kg/day, oral
[10] = monotherapies, all the tested dose levels except HCQ (22.5 mg/kg), p≦0.05
[11] = Day 0, HCQ 22.5, VG 6, SG 0.3 mg/kg alone, HCQ+VG 22.5+6, HCQ+SG 22.5+0.3 mg/kg/day
[12] = Day 0, HCQ 45, VG 12, SG 0.6 mg/kg alone, HCQ+VG 45+12, HCQ+SG 45+0.6 mg/kg/day
[13] = Day 7, HCQ 22.5, VG 6, SG 0.3 mg/kg alone, HCQ+VG 22.5+6, HCQ+SG 22.5+0.3 mg/kg/day
[14] = Day 7, HCQ 45, VG 12, SG 0.6 mg/kg alone, HCQ+VG 45+12, HCQ+SG 45+0.6 mg/kg/day
[15] = Day 14, HCQ 22.5, VG 6, SG 0.3 mg/kg alone, HCQ+VG 22.5+6, HCQ+SG 22.5+0.3 mg/kg/day
[16] = Day 14, HCQ 45, VG 12, SG 0.6 mg/kg alone, HCQ+VG 45+12, HCQ+SG 45+0.6 mg/kg/day
[17] = Day 21, HCQ 22.5, VG 6, SG 0.3 mg/kg alone, HCQ+VG 22.5+6, HCQ+SG 22.5+0.3 mg/kg/day
[18] = Day 21, HCQ 45, VG 12, SG 0.6 mg/kg alone, HCQ+VG 45+12, HCQ+SG 45+0.6 mg/kg/day
[19] = Day 28, HCQ 22.5, VG 6, SG 0.3 mg/kg alone, HCQ+VG 22.5+6, HCQ+SG 22.5+0.3 mg/kg/day
[20] = Day 28, HCQ 45, VG 12, SG 0.6 mg/kg alone, HCQ+VG 45+12, HCQ+SG 45+0.6 mg/kg/day

CCN(CCO)CCCC(C)Nc1ccnc2cc(Cl)ccc12 (stereo not shown) [HCQ, Hydroxychloroquine]
Creatinine [1, 6]: 1.79
HDL-C [1, 6]: 24.99 mg/dL
HbA1c [1, 6]: 5.30
Insulin (serum) [1, 6]: 4.71
SGOT [1, 6]: 57.29
SGPT [1, 6]: 58.12
TC [1, 6]: 166.69 mg/dL
TG [1, 6]: 130.65 mg/dL
Total Protein [1, 6]: 4.03 g/dL
Urea [1, 6]: 46.38 mg/dL
Albumin [1, 7]: 2.33 g/dL
Creatinine [1, 7]: 1.72
HDL-C [1, 7]: 25.07 mg/dL
HbA1c [1, 7]: 4.91
Insulin (serum) [1, 7]: 5.97
SGOT [1, 7]: 53.77
SGPT [1, 7]: 55.94
TC [1, 7]: 158.57 mg/dL
TG [1, 7]: 124.68 mg/dL
Total Protein [1, 7]: 4.12 g/dL
Urea [1, 7]: 43.85 mg/dL
AVERAGE WATER INTAKE ([2]; Day 1, Sub-The (subtherapeutic dose)): 31.67 mL
AVERAGE WATER INTAKE ([2]; Day 1, The (therapeutic dose)): 30.00 mL
Body Weight ([2]; Day 1, subtherapeutic dose: STG 5.5, HCQ 23, STG+HCQ 5.5+23 mg/kg oral): 133.33 ± 17.67 g
AVERAGE FOOD INTAKE ([2]; Day 1, subtherapeutic dose: STG 5.5, HCQ 23, combination 5.5+23 mg/kg oral): 12.17 g
Body Weight ([2]; Day 1, therapeutic dose: STG 11, HCQ 46, STG+HCQ 11+46 mg/kg oral): 140.33 ± 14.60 g
AVERAGE FOOD INTAKE ([2]; Day 1, therapeutic dose: STG 11, HCQ 46, combination 11+46 mg/kg oral): 11.50 g
AVERAGE WATER INTAKE ([2]; Day 7, Sub-The (subtherapeutic dose)): 32.17 mL
AVERAGE WATER INTAKE ([2]; Day 7, The (therapeutic dose)): 29.17 mL
Body Weight ([2]; Day 7, subtherapeutic dose: STG 5.5, HCQ 23, STG+HCQ 5.5+23 mg/kg oral): 133.67 ± 16.61 g
AVERAGE FOOD INTAKE ([2]; Day 7, subtherapeutic dose: STG 5.5, HCQ 23, combination 5.5+23 mg/kg oral): 11.50 g
Body Weight ([2]; Day 7, therapeutic dose: STG 11, HCQ 46, STG+HCQ 11+46 mg/kg oral): 141.17 ± 14.26 g
AVERAGE FOOD INTAKE ([2]; Day 7, therapeutic dose: STG 11, HCQ 46, combination 11+46 mg/kg oral): 10.33 g
AVERAGE WATER INTAKE ([2]; Day 14, Sub-The (subtherapeutic dose)): 32.17 mL
AVERAGE WATER INTAKE ([2]; Day 14, The (therapeutic dose)): 28.33 mL
Body Weight ([2]; Day 14, subtherapeutic dose: STG 5.5, HCQ 23, STG+HCQ 5.5+23 mg/kg oral): 135.17 ± 16.29 g
AVERAGE FOOD INTAKE ([2]; Day 14, subtherapeutic dose: STG 5.5, HCQ 23, combination 5.5+23 mg/kg oral): 11.83 g
Body Weight ([2]; Day 14, therapeutic dose: STG 11, HCQ 46, STG+HCQ 11+46 mg/kg oral): 142.67 ± 13.52 g
AVERAGE FOOD INTAKE ([2]; Day 14, therapeutic dose: STG 11, HCQ 46, combination 11+46 mg/kg oral): 8.67 g
AVERAGE WATER INTAKE ([2]; Day 21, Sub-The (subtherapeutic dose)): 31.83 mL
AVERAGE WATER INTAKE ([2]; Day 21, The (therapeutic dose)): 28.83 mL
Body Weight ([2]; Day 21, subtherapeutic dose: STG 5.5, HCQ 23, STG+HCQ 5.5+23 mg/kg oral): 137.00 ± 15.75 g
AVERAGE FOOD INTAKE ([2]; Day 21, subtherapeutic dose: STG 5.5, HCQ 23, combination 5.5+23 mg/kg oral): 11.67 g
AVERAGE FOOD INTAKE ([2]; Day 21, therapeutic dose: STG 11, HCQ 46, combination 11+46 mg/kg oral): 8.33 g
Plasma glucose concentration ([3]; Day 0, HCQ 22.5, VG 6, SG 0.3 mg/kg alone, HCQ+VG 22.5+6, HCQ+SG 22.5+0.3 mg/kg): 292.17 ± 26.12 mg/dL
Plasma glucose concentration ([3]; Day 0, HCQ 45, VG 12, SG 0.6 mg/kg alone, HCQ+VG 45+12, HCQ+SG 45+0.6 mg/kg): 305.67 ± 27.14 mg/dL
Plasma glucose concentration ([3]; Day 7, HCQ 22.5, VG 6, SG 0.3 mg/kg alone, HCQ+VG 22.5+6, HCQ+SG 22.5+0.3 mg/kg): 278 ± 22.59 mg/dL
Plasma glucose concentration ([3]; Day 7, HCQ 45, VG 12, SG 0.6 mg/kg alone, HCQ+VG 45+12, HCQ+SG 45+0.6 mg/kg): 265.5 ± 8.87 mg/dL
Plasma glucose concentration ([3]; Day 14, HCQ 22.5, VG 6, SG 0.3 mg/kg alone, HCQ+VG 22.5+6, HCQ+SG 22.5+0.3 mg/kg): 269.33 ± 11.45 mg/dL
Plasma glucose concentration ([3]; Day 14, HCQ 45, VG 12, SG 0.6 mg/kg alone, HCQ+VG 45+12, HCQ+SG 45+0.6 mg/kg): 266.5 ± 15.86 mg/dL
Plasma glucose concentration ([3]; Day 21, HCQ 22.5, VG 6, SG 0.3 mg/kg alone, HCQ+VG 22.5+6, HCQ+SG 22.5+0.3 mg/kg): 266.67 ± 24.68 mg/dL
Plasma glucose concentration ([3]; Day 21, HCQ 45, VG 12, SG 0.6 mg/kg alone, HCQ+VG 45+12, HCQ+SG 45+0.6 mg/kg): 265.83 ± 9.22 mg/dL
Plasma glucose concentration ([3]; Day 28, HCQ 22.5, VG 6, SG 0.3 mg/kg alone, HCQ+VG 22.5+6, HCQ+SG 22.5+0.3 mg/kg): 266.5 ± 11.33 mg/dL
Plasma glucose concentration ([3]; Day 28, HCQ 45, VG 12, SG 0.6 mg/kg alone, HCQ+VG 45+12, HCQ+SG 45+0.6 mg/kg): 244.5 ± 18.1 mg/dL
blood glucose levels as compared to diabetic control group ([3]; alone at therapeutic equivalent doses, day 28): significant improvement
HbA1c [4, 8]: 11.28 ± 1.08 %
Total Protein [4, 8]: 6.16 ± 0.41 gm/dl
Urea [4, 8]: 24.68 ± 1.96 mg/dL
Creatinine [4, 9]: 1.75 ± 0.29 mg/dL
HbA1c [4, 9]: 11.07 ± 1.22 %
Total Protein [4, 9]: 6.35 ± 0.79 gm/dl
Urea [4, 9]: 23.37 ± 2.86 mg/dL
HbA1c levels as compared to diabetic control ([4]; all tested doses, 28 days, p≦0.05): significantly (p≦0.05) reduced
total protein level as compared to the diabetic control group ([4]; monotherapies at all doses, 28 days, p≦0.05): significant rise
creatinine levels as compared to diabetic control group [4, 10]: significant reduction
urea levels as compared to diabetic control group [4, 10]: significant reduction
AVERAGE FOOD INTAKE [5, 11]: 11.45 g
AVERAGE WATER INTAKE [5, 11]: 25.05 mL
Body Weight [5, 11]: 199.83 ± 17.7 g
AVERAGE FOOD INTAKE [5, 12]: 11.67 g
AVERAGE WATER INTAKE [5, 12]: 23.88 mL
Body Weight [5, 12]: 198 ± 11.03 g
AVERAGE FOOD INTAKE [5, 13]: 13.35 g
AVERAGE WATER INTAKE [5, 13]: 24.11 mL
Body Weight [5, 13]: 190.67 ± 11.41 g
AVERAGE FOOD INTAKE [5, 14]: 13.39 g
AVERAGE WATER INTAKE [5, 14]: 22.41 mL
Body Weight [5, 14]: 184.17 ± 9.99 g
AVERAGE FOOD INTAKE [5, 15]: 11.95 g
AVERAGE WATER INTAKE [5, 15]: 23.29 mL
Body Weight [5, 15]: 196.17 ± 10.93 g
AVERAGE FOOD INTAKE [5, 16]: 12.05 g
AVERAGE WATER INTAKE [5, 16]: 21.55 mL
Body Weight [5, 16]: 190.67 ± 9.56 g
AVERAGE FOOD INTAKE [5, 17]: 13.00 g
AVERAGE WATER INTAKE [5, 17]: 26.34 mL
Body Weight [5, 17]: 199.67 ± 10.52 g
AVERAGE FOOD INTAKE [5, 18]: 12.75 g
AVERAGE WATER INTAKE [5, 18]: 26.22 mL
Body Weight [5, 18]: 194.67 ± 9.52 g
AVERAGE FOOD INTAKE [5, 19]: 14.11 g
AVERAGE WATER INTAKE [5, 19]: 25.44 mL
Body Weight [5, 19]: 201.17 ± 8.7 g
AVERAGE FOOD INTAKE [5, 20]: 14.00 g
AVERAGE WATER INTAKE [5, 20]: 25.79 mL
Body Weight [5, 20]: 198.17 ± 9.15 g
body weight as compared to diabetic control group ([5]; monotherapies, p≦0.05): significant increase
